{"source": "patent US12622910B2", "about": "“Inhibitors of Bruton's tyrosine kinase and methods of their use” (Janssen Pharmaceutica NV, priority 2021, dated 2026)", "key": {"[1]": {"test": "Metabolic stability in liver microsomes", "format": "in vitro ADME, dog", "procedure": "Additional Data on Preclinical PK Profile—Protein binding of the compound of Formula (III) was studied using an equilibrium dialysis method in plasma from human, cynomolgus monkey, beagle dog, Sprague Dawley rat, CD-1 mouse, and guinea pig at 0.25, 2.5, and 25 μM. […] In human and monkey, the plasma protein binding was concentration dependent. […] Free fraction of the compound of Formula (III) in liver microsomes from various species ranged from 75.1% to 87.9% at 0.25 mg/mL and from 58.9% to 86.5% at 1.0 mg/mL (Table 17). […] In hepatocytes, the compound of Formula (III) turnover followed a similar trend, with T1/2 ranging from 75.3 minutes in monkey to 278.1 minutes in human."}, "OCI-LY10 xenografts": {"system": "OCI-LY10 xenografts", "test": "OCI-LY10 human ABC-DLBCL xenograft efficacy", "format": "in vivo, female NSG mice", "conditions": "Day 45", "text": "FIG. 20 depicts the effect of the compound of Formula (III) on growth of established OCI-LY10 human ABC-DLBCL xenografts in mice PEG400/PVP-VA64, Polyethylene glycol 400/N-vinylpyrrolidone and vinyl acetate 64; SEM, standard error of the mean. Group tumor volumes are graphed as the mean±SEM. Bar below x-axis indicates the treatment period. Groups are plotted while at least ⅔ of the animals remained on the study. Mice were implanted SC on the right flank on Day 0. Tumors were established 33 days post implantation, mice were randomized into experimental groups and dosed orally twice or once daily for 3 weeks (n=10/group).\nTo evaluate the duration of signaling shutdown and occupancy of BTK protein after compound administration, we determined the amount of free BTK protein in OCI-LY10 DLBCL tumor lysates harvested using an BTK occupancy assay. […] BTK protein occupancy levels remained high with 71%, 94% and 96%, respectively, at 12 hours and 70%, 91% and 85%, respectively after 24 hours. (FIG. 19). The antitumor efficacy of compound of Formula (III) was assessed in mice bearing established SC OCI-LY10 human CD79b mutant DLBCL xenografts in female NSG mice, dosed either once (QD) or twice (BID) a day. Analysis of tumor growth inhibition was performed 14 days into the 21-day treatment period (Day 45) as that was the last day when 2/3 of the vehicle controls remained on the study. Compound of Formula (III) induced tumor growth inhibition in the OCI-LY10 model at all dose levels. […] Taken together, the in vivo data support a first in-human trial of the compound of Formula (III) in combination with Venetoclax in patients with B cell lymphomas."}, "B-cell activation": {"system": "B-cell activation", "test": "Rat whole blood assay, anti-IgD-induced B-cell activation (CD86)", "format": "cell-based, Wistar rat", "conditions": "anti-IgD stimulation, n=2, read-out: IC50, inhibition of B-cell activation in rat whole blood", "text": "The compound of Formula (III) Inhibits B-cell receptor activation—Rat whole blood assays were used to assess the ability of the compound of Formula (III) to inhibit activation of primary B cells in whole blood. The assay used anti-IgD stimulation to trigger B-cell activation. Cell activation in freshly isolated blood was quantified by staining for cell surface expression of B220 to identify B cells and a cell activation marker CD86.\nRat Whole Blood Assay-Anti-rat IgD was purchased from Bio-Rad AbD Serotec, Ltd. (Oxford, United Kingdom). Rat B220-PE and rat CD86-FITC were purchased from eBioscience (San Diego, CA). Lysing buffer was purchased from BD Biosciences (San Diego, CA). To determine the potency of each compound, inhibition of anti-IgD-induced activation of B cells in rat whole blood was assessed by flow cytometry. […]\nInhibition percentage was determined by the following equation: Inhibition %=(ActBstim−ActBcompound)×100/(ActBstim−ActBunstim), where […], ActBunstim, and ActBcompound refer to the percentage of activated B cells of the stimulated (no compound), unstimulated (no antibody), and compound treated wells, respectively. The IC50 for each compound was then calculated from the inhibition % of the titrations using a 4-PL fit. […]"}}}
{"smiles": "C=CC(=O)N[C@H]1CCC[C@H]1NC(=O)c1sc2nccc3c2c1NC(=O)N3c1cnc(CC(C)C)cc1C", "note": "(atropisomer, axis not shown) [compound of Formula (III), N-((1R,2S)-2-Acrylamidocyclopentyl)-5-(S)-(6-isobutyl-4-methylpyridin-3-yl)-4-oxo-4,5-dihydro-3H-1-thia-3,5,8-triazaacenaphthylene-2-carboxamide]", "values": [{"measurement": "Extraction Ratio, liver microsomes", "setting": "[1]; Dog", "result": 0.65}, {"measurement": "microsomal CLint", "setting": "[1]; dog, liver microsomes", "result": 40.6, "unit": "µL/min/mg"}, {"measurement": "half-life", "setting": "[1]; dog, liver microsomes, read-out: T1/2, liver microsomes", "result": 17.1, "unit": "min"}, {"measurement": "TGI", "setting": "OCI-LY10 xenografts; 5 mg/kg BID", "result": 26, "unit": "%"}, {"measurement": "ΔTGI", "setting": "OCI-LY10 xenografts; 5 mg/kg BID", "result": 34, "unit": "%"}, {"measurement": "TGI", "setting": "OCI-LY10 xenografts; 10 mg/kg QD", "result": 24, "unit": "%"}, {"measurement": "ΔTGI", "setting": "OCI-LY10 xenografts; 10 mg/kg QD", "result": 30, "unit": "%"}, {"measurement": "TGI", "setting": "OCI-LY10 xenografts; 15 mg/kg BID", "result": 51, "unit": "%"}, {"measurement": "ΔTGI", "setting": "OCI-LY10 xenografts; 15 mg/kg BID", "result": 66, "unit": "%"}, {"measurement": "TGI", "setting": "OCI-LY10 xenografts; 30 mg/kg QD", "result": 35, "unit": "%"}, {"measurement": "ΔTGI", "setting": "OCI-LY10 xenografts; 30 mg/kg QD", "result": 45, "unit": "%"}, {"measurement": "TGI", "setting": "OCI-LY10 xenografts; 50 mg/kg BID", "result": 78, "unit": "%"}, {"measurement": "ΔTGI", "setting": "OCI-LY10 xenografts; 50 mg/kg BID", "result": 102, "unit": "%"}, {"measurement": "TGI", "setting": "OCI-LY10 xenografts; 100 mg/kg QD", "result": 51, "unit": "%"}, {"measurement": "ΔTGI", "setting": "OCI-LY10 xenografts; 100 mg/kg QD", "result": 65, "unit": "%"}, {"measurement": "IC50", "setting": "B-cell activation", "result": "41 ± 11.7", "unit": "nM"}]}
